# Calls of active or inactive are those of the source. The calls are words filed in the database; no cut-off is given here.
# Legend:
# [1] = biological target: T1, Secretin receptor (Homo sapiens, UniProt P47872); experiment: Negative allosteric modulation of SCTR (unknown origin) overexpressed in CHO cells assessed as decrease in SCT-induced cAMP production by measuring maximal response at 100 uM incubated for 20 mins by Lance cAMP assay relative to control (reference value: 100 %); assay type: functional, cell-based; details: filed as negative allosteric modulator
# [2] = system: Rattus norvegicus; experiment: Antihypertensive activity in anesthetized spontaneous hypertensive rat model assessed as reduction in mean arterial blood pressure at 1 mg/kg, po measured within 20 hrs in presence of 0.3 mg/kg Azilsartan relative to control; assay type: functional; design: scale not given: the % may be the effect or the level left
# [3] = biological target: T1, Secretin receptor; experiment: Positive allosteric modulation of SCTR (unknown origin) overexpressed in CHO cells assessed as potentiation of SCT-induced cAMP production by measuring maximal response at 100 uM incubated for 20 mins by Lance cAMP assay relative to control (reference value: 100 %); assay type: functional, cell-based; details: filed as positive allosteric modulator
# [4] = biological target: T1, Secretin receptor; experiment: Synergistic agonist activity at SCTR (unknown origin) expressed in CHO cells assessed as fold increase in cAMP production at 100 uM incubated for 20 mins in presence of SCT by Lance cAMP assay (reference value: 4.13); assay type: functional, cell-based; details: filed as agonist
# [5] = biological target: T1, Secretin receptor; experiment: Positive allosteric modulation of SCTR (unknown origin) expressed in CHO cells assessed as potentiation of SCT-induced cAMP production by measuring maximal response at 100 uM incubated for 20 mins in presence of 1 uM SCT by Lance cAMP assay (reference value: 100 +/- 0.03%); assay type: functional, cell-based; details: filed as positive allosteric modulator
# [6] = biological target: T1, Secretin receptor; experiment: Positive allosteric modulation of SCTR (unknown origin) expressed in CHO cells assessed as potentiation of SCT-induced cAMP production by measuring maximal response at 10 uM incubated for 20 mins in presence of 1 uM SCT by Lance cAMP assay (reference value: 100 +/- 0.03%); assay type: functional, cell-based; details: filed as positive allosteric modulator
# [7] = biological target: T1, Secretin receptor; experiment: Positive allosteric modulation of SCTR (unknown origin) expressed in CHO cells assessed as potentiation of SCT-induced cAMP production by measuring maximal response at 1 uM incubated for 20 mins in presence of 1 uM SCT by Lance cAMP assay (reference value: 100 +/- 0.03%); assay type: functional, cell-based; details: filed as positive allosteric modulator
# [8] = biological target: T1, Secretin receptor; experiment: Agonist activity at SCTR (unknown origin) expressed in CHO cells assessed as increase in cAMP production incubated for 20 mins Lance cAMP assay; assay type: functional, cell-based
# [9] = biological target: T1, Secretin receptor; experiment: Agonist activity at SCTR (unknown origin) expressed in CHO cells assessed as increase in cAMP production by measuring maximal response incubated for 20 mins Lance cAMP assay relative to control; assay type: functional, cell-based
# [10] = system: Rattus norvegicus; experiment: Antihypertensive activity in anesthetized spontaneous hypertensive rat model assessed as reduction in blood pressure at 0.26 microg/g, iv administered through tail vein and measured after 20 to 50 hrs by DSI telemetric transmitter based analysis; assay type: functional, organism-based; details: dose 0.26 µg/g, time 20-50 hrs
# [11] = system: Rattus norvegicus; experiment: Antihypertensive activity in anesthetized spontaneous hypertensive rat model assessed as reduction in mean arterial blood pressure at 0.26 microg/g, iv administered through tail vein and measured after 20 to 50 hrs by DSI telemetric transmitter based analysis relative to control; assay type: functional; design: scale not given: the % may be the effect or the level left; details: dose 0.26 µg/g, time 20-50 hrs
# [12] = system: Rattus norvegicus; experiment: Antihypertensive activity in anesthetized spontaneous hypertensive rat model assessed as reduction in mean arterial blood pressure at 30 mg/kg, po measured after 15 hrs relative to control; assay type: functional; design: scale not given: the % may be the effect or the level left
# [13] = system: Rattus norvegicus; experiment: Antihypertensive activity in anesthetized spontaneous hypertensive rat model assessed as reduction in mean arterial blood pressure at 50 mg/kg, po measured after 15 hrs relative to control; assay type: functional; design: scale not given: the % may be the effect or the level left
# [14] = Cmax in C57 mouse blood at 1000 mg/kg, po administered via gavage measured upto 24 hrs by LC-MS/MS analysis; assay type: ADME, organism-based; design: time < 24 hrs, dose 1000 mg/kg, route po
# [15] = Tmax in C57 mouse blood at 1000 mg/kg, po administered via gavage measured upto 24 hrs by LC-MS/MS analysis; assay type: ADME, organism-based
# [16] = Drug concentration in C57 mouse blood at 1000 mg/kg, po administered via gavage measured at 6 hrs by LC-MS/MS analysis; assay type: ADME, organism-based; details: read-out: Ct
# [17] = Drug concentration in C57 mouse blood at 1000 mg/kg, po administered via gavage measured after 12 hrs by LC-MS/MS analysis; assay type: ADME, organism-based; details: read-out: Ct
# [18] = Drug concentration in C57 mouse blood at 1000 mg/kg, po administered via gavage measured at 24 hrs by LC-MS/MS analysis; assay type: ADME, organism-based; details: read-out: Ct
# [19] = Half life in C57 mouse blood at 1000 mg/kg, po administered via gavage measured upto 24 hrs by LC-MS/MS analysis; assay type: ADME, organism-based
# T1 sequence (P47872 whole entry): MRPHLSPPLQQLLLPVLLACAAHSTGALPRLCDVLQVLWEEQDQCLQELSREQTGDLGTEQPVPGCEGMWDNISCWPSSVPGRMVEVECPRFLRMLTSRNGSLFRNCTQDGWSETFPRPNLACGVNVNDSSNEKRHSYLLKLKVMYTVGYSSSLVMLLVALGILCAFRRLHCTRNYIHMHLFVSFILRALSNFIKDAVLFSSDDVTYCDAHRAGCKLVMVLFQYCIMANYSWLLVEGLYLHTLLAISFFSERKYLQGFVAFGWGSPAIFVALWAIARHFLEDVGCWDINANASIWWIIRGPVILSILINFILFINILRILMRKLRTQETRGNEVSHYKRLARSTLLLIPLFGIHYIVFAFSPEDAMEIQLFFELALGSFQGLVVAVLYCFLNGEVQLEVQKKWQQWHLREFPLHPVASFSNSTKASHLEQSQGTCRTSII
structure (smiles),measurement,setting,value
c1ccc(-c2ccc(Nc3nc(Oc4cccc5ccccc45)nc4c3ncn4C3CCCCC3)cc2)cc1,Emax,[1],58.8%
NS(=O)(=O)c1cc(C2(O)NC(=O)c3ccccc32)ccc1Cl (stereo unspecified) [CHLORTHALIDONE],Activity,[2],22.72%
O=C(O)c1cn(C2CCCCC2)c2nc(Oc3cccc4ccccc34)nc(Nc3ccc(N4CCOCC4)cc3)c12,Emax,[3],157%
c1ccc(Oc2ccc(Nc3nc(Oc4cccc5ccccc45)nc4c3ncn4C3CCCCC3)cc2)cc1,Emax,[3],98.8%
O[C@@H]1CCC[C@H](n2cnc3c(Nc4ccc(N5CCOCC5)cc4)nc(Oc4cccc5ccccc45)nc32)C1,Emax,[3],165%
c1ccc2c(Oc3nc(Nc4ccc(N5CCOCC5)cc4)c4ncn(C5CCCCC5)c4n3)cccc2c1 [PURMORPHAMINE],fold change (FC),[4],6.1
same,Emax,[5],238%
same,Emax,[6],103%
same,Emax,[7],117%
same,EC50,[8],191 µM
same,Emax,[9],10.3%
same,Emax,[3],204%
same,Activity,[10],Active
same,Activity,[11],~14%
same,Activity,[12],10.33%
same,Activity,[13],7.63%
same,Cmax,[14],647 ng/mL
same,Tmax,[15],30 min
same,concentration at 6 h,[16],> 300 ng/mL
same,concentration at 12 h,[17],260 ng/mL
same,concentration at 24 h,[18],61 ng/mL
same,half-life,[19],462 min
OC1CCN(c2ccc(Nc3nc(Oc4cccc5ccccc45)nc4c3ncn4C3CCCCC3)cc2)CC1,Emax,[3],166%
Oc1cc(N2CCOCC2)ccc1Nc1nc(Oc2cccc3ccccc23)nc2c1ncn2C1CCCCC1,Emax,[3],181%
c1ccc2c(Oc3nc(Nc4ccc(-c5cccc6ccccc56)cc4)c4ncn(C5CCCCC5)c4n3)cccc2c1,Emax,[1],54.1%
Oc1ccc2c(Oc3nc(Nc4ccc(N5CCOCC5)cc4)c4ncn(C5CCCCC5)c4n3)cccc2c1,Emax,[3],146%

# From ChEMBL document CHEMBL5352393, “Discovery of small-molecule modulators of the secretin receptor: Purmorphamine as novel anti-hypertensive agent” (Eur J Med Chem, 2022)
